The record followed here is patent EP4818193A1, “COMPOSITION AND METHOD FOR TREATING NEONATAL HYPOXIC-ISCHEMIC ENCEPHALOPATHY” (Suzhou Glenkol Pharma Technology Co., Ltd., priority 2023, dated 2025).

In assay [1] the test system is cerebral cortical neural cells. Briefly: Lactate dehydrogenase (LDH) cytotoxicity assay after oxygen-glucose deprivation. The class given is cell-based, neonatal rats. Details: dose or concentration left out as unconfirmed. As to conditions: added at initiation of oxygen-glucose deprivation; 24 hours after injury; compared to untreated oxygen-glucose deprivation group, p < 0.05.

Assay [2] has as its system cerebral cortical neural cells. Briefly: MTT assay for cell viability after oxygen-glucose deprivation. The class given is cell-based, neonatal rats. Set-up: dose or concentration left out as unconfirmed. To be noted: added at initiation of oxygen-glucose deprivation; 24 hours after injury; compared to untreated oxygen-glucose deprivation group, p < 0.05. (In general: Formazan colour is commonly taken as a measure of viable cells.)

For the substance Davunetide [NaP], the LDH release levels entry in assay [1] was “significantly reduced”. Further, the MTT formation levels entry in assay [2] is given as “significantly increased”.
